Reference: PubChem BioAssay (NCI)
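Assay format: 96-well plates, 48-hour exposure. At the GI50, growth is halved. Definition used: TGI = concentration required for complete inhibition of growth.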

Columns and labels:
Experiment in all cases: growth of human tumour cells (NCI), 48 h
COLO 205 colon = system: COLO 205 colon
SN12C renal = system: SN12C renal
IGROV1 ovarian = system: IGROV1 ovarian
SR leukemia = system: SR leukemia
UACC-257 melanoma = system: UACC-257 melanoma
HCC-2998 colon = system: HCC-2998 colon
HOP-92 NSCLC = system: HOP-92 NSCLC
MCF7 breast = system: MCF7 breast
EKVX NSCLC = system: EKVX NSCLC
KM12 colon = system: KM12 colon

Row | Compound | GI50 (COLO 205 colon) [µM] | TGI (COLO 205 colon) [µM] | GI50 (SN12C renal) [µM] | TGI (SN12C renal) [µM] | GI50 (IGROV1 ovarian) [µM] | TGI (IGROV1 ovarian) [µM] | GI50 (SR leukemia) [µM] | TGI (SR leukemia) [µM] | GI50 (UACC-257 melanoma) [µM] | TGI (UACC-257 melanoma) [µM] | GI50 (HCC-2998 colon) [µM] | TGI (HCC-2998 colon) [µM] | GI50 (HOP-92 NSCLC) [µM] | TGI (HOP-92 NSCLC) [µM] | GI50 (MCF7 breast) [µM] | TGI (MCF7 breast) [µM] | GI50 (EKVX NSCLC) [µM] | TGI (EKVX NSCLC) [µM] | GI50 (KM12 colon) [µM] | TGI (KM12 colon) [µM]
1 | CC1=CC(=O)C(C(C)C)=CC1=Nc1cc(Br)c(O)c(Br)c1 | 19.2 | 35.1 | 5.56 | 18.3 | 4.68 | 20.2 | 3.45 | 15.8 | 14.7 | 33.1 | 3.56 | 13 | 11.5 | 40.8 | 4.27 | 17.7 | 4.51 | 36 | 2.33 | 7.01
2 | Cc1ccc(C(NC(=O)c2ccccc2)c2ccc3cccnc3c2O)cc1 (stereo not given) | 0.44 | 18.5 | 0.451 | 48.7 | 0.352 | 4.95 | 0.197 | > 63.5 | 0.293 | 2.58 | 0.331 | 18.5 | 0.145 | 11.7 | 0.365 | > 47.3 | 0.357 | 53.5 | 0.38 | > 43.7
3 | COc1ccc2c(c1)CC[C@@H]1[C@@H]2CC[C@]2(C)[C@@H](NC(=O)/C=C/c3ccc(O)c(O)c3)CC[C@@H]12 | 14 | 46.8 | 2.61 | 9.3 | 1.98 | 12 | 1.51 | 4.21 | 13.4 | 31.8 | 2.05 | 4.19 | 2.49 | 11.6 | 5.24 | > 100 | 9.98 | 24.5 | 2.28 | 5.88
4 | COC(=O)C1OC2(CCCC3CC32)O[C@H]1C(=O)OC (stereo not given in full) | – | > 100 | – | > 100 | – | > 100 | – | > 100 | – | > 100 | – | > 100 | – | > 100 | – | > 100 | – | > 100 | – | > 100
5 | CN(COC(=O)c1ccccc1)c1nc(N(C)COC(=O)c2ccccc2)nc(N(C)COC(=O)c2ccccc2)n1 | – | > 100 | – | > 100 | – | > 100 | – | > 100 | – | > 100 | – | > 100 | – | 63.1 | – | > 100 | – | > 100 | – | > 100
6 | S=c1[nH]nc(Cc2ccccc2)c(=S)[nH]1 | – | > 100 | – | > 100 | – | > 100 | – | > 100 | – | > 100 | – | > 71.8 | – | > 73.1 | – | > 100 | – | > 31.6 | – | > 100
7 | Cc1ccc(-c2c3c(nn2-c2ccc(S(N)(=O)=O)cc2)-c2ccccc2C3)cc1 | 23 | 94.9 | 16.9 | 36.9 | 3.27 | 16 | 15.2 | 60.2 | 21.9 | 40.3 | 8.54 | 25.8 | 13.9 | 30.6 | 30.3 | > 100 | 19.5 | 51.7 | 15.5 | 43.6
8 | CC(=O)OC1=CC2=CC[C@H]3[C@@H]4CCC(=O)[C@@]4(C)CC(=O)[C@]3(S)[C@@]2(C)CC1 | – | > 100 | – | > 100 | – | > 100 | – | 74.1 | – | 79.6 | – | 65.1 | – | 62.8 | – | > 100 | – | > 100 | – | > 100
